# In patent EP2961395B1, “TARGETED NANOPARTICLES” (CALIFORNIA INSTITUTE OF TECHNOLOGY, priority 2013, dated 2014):
# Where two headings read alike, the source gives them in different places.
# How the values were obtained:
# [1] = test system: BT-474; assay: Cytotoxicity assay (CellTiter 96 AQueous One) in BT-474; type: cell-based; settings: Homo sapiens; BT-474 (HER2 +); 72 h; CPT-containing items based on CPT content
# From the text: (§1) Wells containing untreated cells were used as controls.
# [2] = Plasma pharmacokinetics of free CPT in CD2F1 mice (comparison)
# Protocol: A DNA ladder is loaded in Lane 1. […] A DNA ladder is loaded in Lane 1. […] Free CPT injected at 10 mg/kg into CD2F1 mice is shown as comparison. (A) Plasma concentration of polymer bound CPT as a function of time. […] (A) Percent injected dose (ID) of total CPT per gram of tumor, heart, liver, spleen, kidney or lung. (B) Percentage of total CPT in each organ that is unconjugated in tumor, heart, liver, spleen, kidney and lung. (C) Total concentration of CPT in plasma.
# [3] = test system: MCF-7; assay: Cytotoxicity assay (CellTiter 96 AQueous One) in MCF-7; type: cell-based; settings: Homo sapiens, MCF7; MCF-7 (HER2 -); 72 h; CPT-containing items based on CPT content
# From the text: as §1
# [4] = test system: MDA-MB-231; assay: Cytotoxicity assay (CellTiter 96 AQueous One) in MDA-MB-231; type: cell-based; settings: Homo sapiens; MDA-MB-231 (HER2 -); 72 h; CPT-containing items based on CPT content
# From the text: as §1
# [5] = test system: BT-474 xenograft tumors
# Protocol: Treatments began on day 1. […] All treatments were freshly prepared and given via intravenous tail vein injection. Injections were standardized at 150 µl per 20 g body weight of mice. […] Tumor sizes were recorded three times a week using caliper measurements (length x width^2/2) and health of the animals was continuously monitored. Animals were euthanized when tumor volumes exceeded 1000 mm^3. Six weeks after beginning of the treatment, animals were euthanized by CO2 asphyxiation.
# [6] = test system: SKBR-3; assay: Cytotoxicity assay (CellTiter 96 AQueous One) in SKBR-3; type: cell-based; settings: Homo sapiens, SK-BR-3; SKBR-3 (HER2 +); 72 h; CPT-containing items based on CPT content
# From the text: as §1
# [7] = pKa determination by absorbance change on titration; type: physicochemical; settings: 10^-3 M PBA in 0.1 M PBS, titrated with 1 N NaOH, absorbance at 268 nm
# Protocol: The pKa of the synthesized PBA compounds were found by measuring the change in absorbance of PBA as it converted from trigonal (in low pH) to tetrahedral (in high pH) conformation. To a solution of 10^-3 M PBA in 0.1 M PBS, pH 7.4 was titrated 1 N NaOH. pH was recorded and corresponding samples were removed for absorbance measurements at 268 nm. Table 2. pKa and binding constants of PBA compounds
# pKa values of the modified PBAs were determined by absorbance changes due to conformational change of PBA from trigonal to tetrahedral form as the pH was increased (Table 2). […] Thus, at physiological pH, most of the PBA was present in the reactive anionic tetrahedral form. Binding constants between PBA and MAP were found by competitive binding with Alizarin Red S in 0.1 M PBS, pH 7.4.
# [8] = 8 mg/kg (MAP-CPT on CPT basis) i.v. once per week for 3 weeks
# [9] = 80 mg/kg i.v. once per week for 3 weeks
smiles,measurement,setting,value
"CC[C@@]1(O)C(=O)OCc2c1cc1n(c2=O)Cc2cc3ccccc3nc2-1 [CPT, Camptothecin]",IC50,[1],4000 nM
same,AUC,"[2]; CD2F1, mouse, in vivo, 10 mg/kg",1600 ng·h/mL
same,injected dose remaining in circulation,"[2]; after 8 h, CPT alone at 10 mg/kg",0.01%
same,IC50,[3],300 nM
same,IC50,[4],100 nM
same,Mean tumor volume,[5]; [8],808 mm^3
same,Median tumor volume,[5]; [8],417 mm^3
same,NTRD (number of treatment related death),[5]; [8],4
same,Nend (number of animals surviving to end of study),[5]; [8],8/0
same,Neuthan (number of animals euthanized due to exceeding tumor size limit of 1000 mm^3),[5]; [8],4
same,Nreg to zero (number of animals with tumors regressed to zero at the end of study),[5]; [8],0
same,tumor inhibition compared to control group,[5]; [8],no tumor inhibition
same,IC50,[6],30 nM
CCc1c2c(nc3ccc(OC(=O)N4CCC(N5CCCCC5)CC4)cc13)-c1cc3c(c(=O)n1C2)COC(=O)[C@]3(O)CC [Irinotecan],NTRD (number of treatment related death),[5]; [9],1
same,Nend (number of animals surviving to end of study),[5]; [9],8/7
same,Neuthan (number of animals euthanized due to exceeding tumor size limit of 1000 mm^3),[5]; [9],0
same,Nreg to zero (number of animals with tumors regressed to zero at the end of study),[5]; [9],0
same,tumor inhibition compared to control group,[5]; [9],non-significant tumor inhibition
"OB(O)c1ccccc1 [PBA, phenylboronic acid]",pKa,[7],8.8
